According to patent publication US10369185B2, “Methods and compositions for enhancement of ability to concentrate” (KYOWA HAKKO BIO CO., LTD., priority 2014, dated 2019):
Entries after “also recorded” stand apart in the source; their conditions may differ. Peptide text beside a SMILES is read from it.

How the values were obtained:
[1] = test system: male runners; test: Dynavision D2 visual, motor and physical reaction time to a visual stimulus; assay type: in vivo, human; conditions: between groups
Experimental: The testing protocol is depicted in FIG. 1. Data collection occurred on four separate occasions. Each session required participants to perform a 60-min run at 75% of their previously measured VO2max. Following this run, all participants performed a run at 90% of their VO2max until volitional exhaustion. All participants performed their first trial (DHY) without any rehydration. During this session the total weight lost during the trial was determined. The fluid loss that occurred during this session was then used to determine the participant's swear rate (L·hr^−1). To continue in the study, participant's sweat rate was or exceeded 1.3 L·hr^−1. […] The first assessment measured the participant's visual, motor, and physical reaction time to a stimulus with the dominant hand. […] Visual reaction time was determined as the amount of time from identifying the stimulus and initiating a reaction by leaving the home button. Motor response time was determined by the time (measured in 1/100's of a second) it took to physically strike the stimulus following the initial visual reaction and was measured as the amount of time from the hand leaving the home button and striking the stimulus. Physical reaction time was determined by the total elapsed time from the introduction of the target stimulus to the physical completion of the task (returning to the home button after striking the stimulus). […]

[2] = in vivo; cited from earlier work
[3] = test system: male runners; test: Lower body reaction, 20-second Quick Board test; assay type: in vivo, human; conditions: for QuickBoard Hit Δ, group mean: Post-Pre; for changes in lower body reaction (Quick Board): LD and HD, no significant differences between groups
Experimental: The testing protocol is depicted in FIG. 1. Data collection occurred on four separate occasions. Each session required participants to perform a 60-min run at 75% of their previously measured VO2max. Following this run, all participants performed a run at 90% of their VO2max until volitional exhaustion. All participants performed their first trial (DHY) without any rehydration. During this session the total weight lost during the trial was determined. The fluid loss that occurred during this session was then used to determine the participant's swear rate (L·hr^−1). To continue in the study, participant's sweat rate was or exceeded 1.3 L·hr^−1. During the next three trails participants were provided 250 ml of fluid every 15 minutes in equal amounts. During one of the trials participants consumed only a flavored sports drink (ELECT only), while during the other trials participants consumed the alanine-glutamine supplement (Sustamine™) mixed in the same flavored sports drink at either a low (LD: 300 mg per 500 ml) or high (HD: 1 g per 500 ml) dose. A Lower body reaction time was assessed by a 20-second reaction test on the Quick Board™ (The Quick Board, LLC, Memphis, Tenn.) reaction timer (QB). Participants stood on a board of five circles, in a 2×1×2 pattern. The participant straddled the middle circle and reacted to a visual stimulus located on a display box that depicted one of five potential lights that corresponded with the circles on the board. Upon activation of the light, the participant attempted to move the foot closest to the circle that corresponded to the visual stimulus. Upon a successful connection the next stimulus appeared. The total number of successful attempts for the 20-second test and the average time between the activation of the light and the response to the corresponding circle were recorded. Additionally, to make inferences on true effects of the different trials on reaction performance, an analysis based on the magnitude of differences, calculated from 90% confidence intervals, as previously described by Batterham and Hopkins (2005), was used in this study. Differences in Post-Pre performance (Δresponse) between trials were analyzed via a published spreadsheet (Hopkins 2007), with the smallest non-trivial change set at 20% of the grand standard deviation (Batterham and Hopkins 2005). All data are expressed as a mean effect±SD, with percent chances of a beneficial, trivial or negative outcome. Qualitative inferences, based on quantitative chances were assessed as: <1% almost certainly not, 1-5% very unlikely, 5-25% unlikely, 25-75% possibly, 75-95% likely, 95-99% very likely and >99% almost certainly (Hopkins 2002).

## C[C@H](N)C(=O)N[C@@H](CCC(N)=O)C(=O)O [L-Alanyl-L-Glutamine] (H-Ala-Gln-OH)
[1]
  change in visual, motor and physical reaction times to a visual stimulus: No significant differences were noted between groups
[2]
  degradation in the body: immediately degraded into alanine and glutamine in the body
[3]; Dehydration vs High Dose
  QuickBoard Hit Δ, Interpretation: likely lower
  QuickBoard Hit Δ, Mean Difference: −2.6
  QuickBoard Hit Δ, Percent Negative: 90.99%
  QuickBoard Hit Δ, Percent Positive: 1.92%
  QuickBoard Hit Δ, Percent Trivial: 7.10%
[3]; Dehydration vs Low Dose
  QuickBoard Hit Δ, Interpretation: likely lower
  QuickBoard Hit Δ, Mean Difference: −2.2
  QuickBoard Hit Δ, Percent Negative: 88.90%
  QuickBoard Hit Δ, Percent Positive: 1.93%
  QuickBoard Hit Δ, Percent Trivial: 9.16%
[3]; Gatorade vs High Dose
  QuickBoard Hit Δ, Interpretation: Unclear
  QuickBoard Hit Δ, Mean Difference: −1.7
  QuickBoard Hit Δ, Percent Negative: 73.53%
  QuickBoard Hit Δ, Percent Positive: 9.72%
  QuickBoard Hit Δ, Percent Trivial: 16.75%
[3]; High Dose (1 g per 500 ml)
  QuickBoard Hit Δ, group mean: 1.17
[3]
  changes in lower body reaction (Quick Board): performance appeared to improve in LD and HD
[3]; listed as L-alanyl-L-glutamine
  changes in lower body reaction (Quick Board): Performance appeared to improve
[3]; Low Dose (300 mg per 500 ml)
  QuickBoard Hit Δ, group mean: 0.75
[3]; Low Dose vs Gatorade
  QuickBoard Hit Δ, Interpretation: Unclear
  QuickBoard Hit Δ, Mean Difference: 1.3
  QuickBoard Hit Δ, Percent Negative: 17.75%
  QuickBoard Hit Δ, Percent Positive: 63.09%
  QuickBoard Hit Δ, Percent Trivial: 19.15%
[3]; Low Dose vs High Dose
  QuickBoard Hit Δ, Interpretation: trivial; also recorded: Possibly
  QuickBoard Hit Δ, Mean Difference: 0.42
  QuickBoard Hit Δ, Percent Negative: 29.69%
  QuickBoard Hit Δ, Percent Positive: 0.19%
  QuickBoard Hit Δ, Percent Trivial: 70.12%
